Results on 22 molecules are retold here after patent US7413895B2, “DNA encoding neutral amino acid transporter” (Japan Science and Technology Corporation, priority 1998, dated 2008).

“Also recorded” adds a separate entry of the source.

Broadly, the Km is the concentration of substrate that gives half-maximal velocity.

The first test deals with T1, rat neutral amino acid transporter LAT1 (Rattus norvegicus, UniProt Q63016). The test is described as follows: Incorporation of radiolabeled amino acids into oocytes injected with rat LAT1 and rat 4F2hc cRNA. Format: cell-based. Also noted: expressed in transfected cells; host or cells: oocytes (Xenopus laevis by the cited method of Kanai and Hediger) injected with rat LAT1 cRNA and rat 4F2hc cRNA. The conditions noted are these: 14C compounds as substrates. As for the experimental part: Thus, the oocytes into which rat LAT1 gene cRNA, rat 4F2hc gene cRNA or rat LAT1 gene cRNA/rat 4F2hc gene cRNA was injected were incubated for 30 minutes in an uptake solution containing ^14C-leucine (50 μM) and incorporation of radioactivity into the oocytes was measured.
T1 sequence (Q63016 whole entry): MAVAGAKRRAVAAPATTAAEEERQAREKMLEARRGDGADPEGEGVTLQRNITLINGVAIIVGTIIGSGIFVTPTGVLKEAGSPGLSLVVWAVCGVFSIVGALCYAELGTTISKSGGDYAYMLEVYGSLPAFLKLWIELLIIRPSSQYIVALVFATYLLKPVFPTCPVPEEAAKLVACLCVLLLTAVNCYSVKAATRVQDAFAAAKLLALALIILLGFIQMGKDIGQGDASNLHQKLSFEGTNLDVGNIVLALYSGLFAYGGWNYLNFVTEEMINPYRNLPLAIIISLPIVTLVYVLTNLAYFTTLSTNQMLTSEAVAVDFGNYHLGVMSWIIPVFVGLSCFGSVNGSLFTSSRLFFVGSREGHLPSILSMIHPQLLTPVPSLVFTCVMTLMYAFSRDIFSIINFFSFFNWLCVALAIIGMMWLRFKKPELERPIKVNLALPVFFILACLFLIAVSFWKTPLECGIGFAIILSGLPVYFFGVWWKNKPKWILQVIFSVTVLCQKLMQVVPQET
T1 sequence (Q794F9 whole entry partner): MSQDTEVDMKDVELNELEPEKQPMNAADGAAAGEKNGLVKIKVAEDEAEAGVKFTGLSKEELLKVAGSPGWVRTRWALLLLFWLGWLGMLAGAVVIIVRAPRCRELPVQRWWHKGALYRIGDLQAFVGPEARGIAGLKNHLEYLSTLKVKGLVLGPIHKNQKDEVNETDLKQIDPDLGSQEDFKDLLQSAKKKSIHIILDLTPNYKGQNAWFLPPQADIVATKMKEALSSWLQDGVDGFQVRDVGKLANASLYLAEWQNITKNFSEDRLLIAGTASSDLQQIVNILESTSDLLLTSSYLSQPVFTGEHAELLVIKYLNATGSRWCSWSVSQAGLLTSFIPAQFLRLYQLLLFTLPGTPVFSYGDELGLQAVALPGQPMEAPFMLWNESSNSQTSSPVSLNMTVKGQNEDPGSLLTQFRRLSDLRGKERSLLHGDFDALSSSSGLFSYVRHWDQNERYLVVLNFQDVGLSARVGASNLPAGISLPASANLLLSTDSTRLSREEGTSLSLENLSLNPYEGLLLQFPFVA
As a substrate however, various radiolabeled compounds were used in place of ^14C-leucine.
Take `N[C@@H](Cc1c[nH]cn1)C(=O)O` [histidine]: the “incorporation of radiolabeled substrate into the oocytes” value was “incorporation into the oocytes was noted”.
On the same count and under the same terms, under `N[C@@H](Cc1ccc(O)cc1)C(=O)O` [tyrosine] stands “incorporation into the oocytes was noted”; under `CC(C)C[C@H](N)C(=O)O` [leucine], “big incorporation; also recorded: incorporation into the oocytes was noted”.
Still for that read-out and setting: under `CSCC[C@H](N)C(=O)O` [methionine] stands “incorporation into the oocytes was noted”; under `CC(C)[C@H](N)C(=O)O` [valine], “incorporation into the oocytes was noted”.
Consider `CC[C@H](C)[C@H](N)C(=O)O` [isoleucine], for which the “incorporation of radiolabeled substrate into the oocytes” value is given as “incorporation into the oocytes was noted”.
Same read-out and setting: under `N[C@@H](Cc1c[nH]c2ccccc12)C(=O)O` [tryptophan] stands “incorporation into the oocytes was noted”; under `N[C@@H](Cc1ccccc1)C(=O)O` [phenylalanine], “incorporation into the oocytes was noted”.

The test system of a further test is T24 cells derived from human bladder cancer. The test is described as follows: Michaelis-Menten kinetic test for the incorporation of leucine by T24 cells. The note with it: leucine as substrate. Format: cell-based. As for the experimental part:
T24 cells derived from human bladder cancer were incubated and maintained in an Eagle's minimal essential medium containing 10% of fetal bovine serum. A test for the incorporation of amino acids into T24 cells was carried out by incubating the T24 cells on a 24-well plate and finished when the state became confluent. The amino acid incorporation test was started by removing the incubating solution and adding a Dulbecco's PBS (manufactured by Gibco) containing ^14C-amino acid and finished by removing it, cooling with ice and washing with a Dulbecco's PBS. After washing, the above was dissolved in 0.1N NaOH and the radioactivity was measured by a liquid scintillation counter.
A Michaelis-Menten kinetic test was carried out for the incorporation of leucine by T24 cells. The Michaelis-Menten kinetic test was conducted by investigating the changes in the incorporated rate of leucine by the difference in the concentration of the substrate leucine.
As to `CC(C)C[C@H](N)C(=O)O` [leucine], the Km came to 100 µM and the “Vmax value of leucine incorporation” value is 23,870 pmol/mg protein/minute.

A further test has as its target T1, rat neutral amino acid transporter LAT1.
Assay: not given
The note with it: read-out: Km value; leucine as substrate; oocytes injected with rat LAT1 and rat 4F2hc cRNA.
Turning to `CC(C)C[C@H](N)C(=O)O` [leucine], the Km is around 24 µM.

A further test deals with T2, human amino acid transporter LAT1 (Homo sapiens, UniProt Q01650). The test is described as follows: Competitive antagonism test: incorporation of 14C-labeled leucine or phenylalanine into oocytes co-expressing human LAT1 and human 4F2hc in the presence of test substance. Format: cell-based. On the set-up: expressed in transfected cells. The conditions noted are these: 14C-labeled leucine 20 μM, test substance 2 mM, 30 minutes, choline chloride uptake solution.
T2 sequence (Q01650 whole entry): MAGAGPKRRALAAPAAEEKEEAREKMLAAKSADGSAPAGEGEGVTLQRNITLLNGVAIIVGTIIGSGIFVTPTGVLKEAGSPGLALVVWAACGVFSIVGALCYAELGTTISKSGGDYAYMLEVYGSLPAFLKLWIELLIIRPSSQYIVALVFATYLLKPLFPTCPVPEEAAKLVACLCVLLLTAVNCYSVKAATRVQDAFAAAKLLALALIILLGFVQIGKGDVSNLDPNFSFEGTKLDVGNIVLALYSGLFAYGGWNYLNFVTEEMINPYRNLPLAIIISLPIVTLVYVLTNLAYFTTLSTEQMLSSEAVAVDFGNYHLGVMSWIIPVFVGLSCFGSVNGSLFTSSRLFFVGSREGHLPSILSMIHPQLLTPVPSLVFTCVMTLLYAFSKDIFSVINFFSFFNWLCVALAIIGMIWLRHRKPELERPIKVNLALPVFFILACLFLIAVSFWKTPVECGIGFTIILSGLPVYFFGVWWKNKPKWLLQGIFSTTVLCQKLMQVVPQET
T2 sequence (as listed by the source partner): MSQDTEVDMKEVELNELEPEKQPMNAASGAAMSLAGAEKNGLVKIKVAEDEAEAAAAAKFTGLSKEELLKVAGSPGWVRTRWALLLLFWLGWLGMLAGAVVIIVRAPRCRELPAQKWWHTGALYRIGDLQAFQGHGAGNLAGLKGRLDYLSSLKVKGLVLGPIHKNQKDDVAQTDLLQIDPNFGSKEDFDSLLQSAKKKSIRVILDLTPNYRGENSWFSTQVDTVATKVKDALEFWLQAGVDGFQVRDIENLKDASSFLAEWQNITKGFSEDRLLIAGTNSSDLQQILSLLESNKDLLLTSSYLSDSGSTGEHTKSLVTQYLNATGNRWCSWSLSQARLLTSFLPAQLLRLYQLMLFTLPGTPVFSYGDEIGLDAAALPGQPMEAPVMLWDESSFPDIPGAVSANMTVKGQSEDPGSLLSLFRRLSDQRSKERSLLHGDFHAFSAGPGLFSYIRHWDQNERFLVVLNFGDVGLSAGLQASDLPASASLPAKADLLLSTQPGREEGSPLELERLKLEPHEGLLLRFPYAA
Consider `N[C@@H](Cc1c[nH]cn1)C(=O)O` [histidine], for which the “inhibition of incorporation of 14C-labeled leucine mediated by the human LAT1” value (“inhibition of incorporation … by the human LAT1” for short) is “strongly inhibited”.
The same measure, in the same setting: under `N[C@@H](Cc1ccc(O)cc1)C(=O)O` [tyrosine] stands “strongly inhibited”.
The same measure, in the same setting: under `N[C@@H](CC(=O)O)C(=O)O` [aspartic acid] stands “not affected at all”.
The same measure, in the same setting: under `N[C@@H](CCC(=O)O)C(=O)O` [glutamic acid] stands “not affected at all”.
With `CC(C)C[C@H](N)C(=O)O` [leucine], the “inhibition of incorporation … by the human LAT1” value is on record as “strongly inhibited”.
The same measure, in the same setting: under `CSCC[C@H](N)C(=O)O` [methionine] stands “strongly inhibited”; under `CC(C)[C@H](N)C(=O)O` [valine], “strongly inhibited”.
The same measure, in the same setting: under `N=C(N)NCCC[C@H](N)C(=O)O` [arginine] stands “not affected at all”; under `CC[C@H](C)[C@H](N)C(=O)O` [isoleucine], “strongly inhibited”.
On to `N[C@@H](Cc1c[nH]c2ccccc12)C(=O)O` [tryptophan], for which the “inhibition of incorporation … by the human LAT1” value was “strongly inhibited”.
The same measure, in the same setting: under `N[C@@H](Cc1ccccc1)C(=O)O` [phenylalanine] stands “strongly inhibited”; under `NCCCC[C@H](N)C(=O)O` [lysine], “not affected at all”.

Staying with this test, now noted: 14C-labeled phenylalanine instead of leucine, test substance 2 mM, 30 minutes, choline uptake solution.
Consider `N[C@@H](Cc1ccc(O)c(O)c1)C(=O)O` [L-DOPA], for which the “inhibition of incorporation of 14C-labeled phenylalanine into oocytes” value is “strongly inhibited”.

For a further test, the system named is T24 cells derived from human bladder cancer. Briefly: Inhibition of 14C-leucine incorporation by T24 cells by amino acids and similar substances. Format: cell-based. The conditions noted are these: 14C-leucine 20 μM, 2 mM unlabeled compound.
`N[C@@H](Cc1c[nH]cn1)C(=O)O` [histidine]: the “inhibition of incorporation of 14C-leucine by T24 cells” value (“inhibition … by T24 cells” below) is recorded as “strong cis-inhibiting effect”.
On the same count and under the same terms, under `N[C@@H](Cc1ccc(O)cc1)C(=O)O` [tyrosine] stands “strong cis-inhibiting effect”; under `CC(C)C[C@H](N)C(=O)O` [leucine], “strong cis-inhibiting effect”.
With `CSCC[C@H](N)C(=O)O` [methionine], the “inhibition … by T24 cells” value is given as “strong cis-inhibiting effect”.
Regarding `CC(C)[C@H](N)C(=O)O` [valine], the “inhibition … by T24 cells” value is listed as “strong cis-inhibiting effect”.
Same read-out and setting: under `CC[C@H](C)[C@H](N)C(=O)O` [isoleucine] stands “strong cis-inhibiting effect”; under `N[C@@H](Cc1c[nH]c2ccccc12)C(=O)O` [tryptophan], “strong cis-inhibiting effect”; under `N[C@@H](Cc1ccccc1)C(=O)O` [phenylalanine], “strong cis-inhibiting effect”.
On the same count and under the same terms, under `N[C@@H](CS)C(=O)O` [cysteine] stands “strong cis-inhibiting effect”.

The target of a further test is T1, rat neutral amino acid transporter LAT1. The test is described as follows: Inhibition of 14C-leucine incorporation into oocytes injected with rat LAT1 and rat 4F2hc cRNA by amino acids and similar substances. Format: cell-based. The conditions noted are these: rat LAT1/rat 4F2hc oocytes; 14C-leucine 20 μM, 2 mM unlabeled compound, choline uptake solution. Also noted: expressed in transfected cells; host or cells: oocytes (Xenopus laevis by the cited method of Kanai and Hediger) injected with rat LAT1 cRNA and rat 4F2hc cRNA.
On to `N[C@@H](Cc1c[nH]cn1)C(=O)O` [histidine], for which the “inhibition of incorporation of 14C-leucine mediated by LAT1” value is given as “strongly inhibited”.
Same read-out and setting: under `N[C@@H](Cc1ccc(N(CCCl)CCCl)cc1)C(=O)O` [melphalan] stands “inhibited”; under `N[C@@H](Cc1ccc(O)cc1)C(=O)O` [tyrosine], “strongly inhibited”.
On the same count and under the same terms, under `CC(C)C[C@H](N)C(=O)O` [leucine] stands “strongly inhibited”; under `CSCC[C@H](N)C(=O)O` [methionine], “strongly inhibited”.
The same measure, in the same setting: under `N[C@@H](Cc1cc(I)c(Oc2cc(I)c(O)c(I)c2)c(I)c1)C(=O)O` [thyroxin] stands “inhibited”.
For `CC(C)[C@H](N)C(=O)O` [valine], the “inhibition of incorporation of 14C-leucine mediated by LAT1” value was “strongly inhibited”.
The same measure, in the same setting: under `CC[C@H](C)[C@H](N)C(=O)O` [isoleucine] stands “strongly inhibited”; under `N[C@@H](Cc1c[nH]c2ccccc12)C(=O)O` [tryptophan], “strongly inhibited”.
Same read-out and setting: under `N[C@@H](Cc1ccccc1)C(=O)O` [phenylalanine] stands “strongly inhibited”.

The next test deals with Mouse sarcoma 180 cells. Briefly: Survival of ICR mouse after intraperitoneal transplantation of mouse sarcoma 180 cells. Format: in vivo. The conditions noted are these: male ICR mouse, sarcoma 180 cells intraperitoneally transplanted, 300 mg/kg for ten days, observation for 19 days. As for the experimental part:
Mouse sarcoma 180 cells were intraperitoneally transplanted (1×10^6) to male ICR mouse and, from the next day of the transplantation, BCH which was a inhibitor for the amino acid transporter, D-Leu having a inhibiting effect on amino acid transporter and D-Ala having no inhibiting action thereon were administered at the dose of 300 mg/kg for ten days. After the transplantation, it was confirmed every day whether the mouse was dead or alive.
Consider `CC(C)C[C@@H](N)C(=O)O` [D-leucine], for which the survival effect entry is “significant survival effect”.
On the same count and under the same terms, under `C[C@@H](N)C(=O)O` [D-Ala] stands “No survival effect”.

Another test deals with rat liver cell line where LAT1 was highly expressed. Briefly: Cell proliferation of cultured rat liver cell line, Cell Counting Kit-8. Format: cell-based. The note with it: 20 mM added to William's medium, incubation for 48 hours. The procedure: A rat liver cell line where LAT1 was highly expressed was incubated on a William's medium, 20 mM of D-leucine or BCH which suppressed the incorporation mediated by LAT1 were added to the medium and, by means of an incubation for 48 hours, cell numbers were investigated using a Cell Counting Kit-8 (manufactured by Dojindo Laboratories). The cell numbers were measured as an absorption at 450 nm (O.D. 450).
(In general: Tetrazolium assays rely on reduction of a dye to a coloured formazan, in cell work by metabolically active cells.)
With `CC(C)C[C@@H](N)C(=O)O` [D-leucine], the “cell numbers (O.D. 450) compared with control group” value is “a reduction in the cell numbers was noted”.

The target in another test is T2, human amino acid transporter LAT1.
Assay: not given
The conditions noted are these: read-out: Michaelis constant (Km); leucine as substrate; Xenopus laevis oocytes co-expressing human LAT1 and human 4F2hc.
Consider `CC(C)C[C@H](N)C(=O)O` [leucine], for which the Km was around 21 µM.

A further test has the same target. The test is described as follows: Incorporation of 14C-labeled amino acids into oocytes co-expressing human LAT1 and human 4F2hc. Format: cell-based. On the set-up: expressed in transfected cells. The conditions noted are these: oocytes co-expressing human LAT1 and human 4F2hc; 14C-labeled substrate 50 μM, 30 minutes.
Regarding `N[C@@H](Cc1c[nH]cn1)C(=O)O` [histidine], the “incorporation of 14C-labeled amino acid into oocytes” value is reported as “significantly incorporated”.
The same measure, in the same setting: under `N[C@@H](Cc1ccc(O)cc1)C(=O)O` [tyrosine] stands “significantly incorporated”.
Take `CC(C)C[C@@H](N)C(=O)O` [D-leucine]: the “incorporation of 14C-labeled amino acid into oocytes” value is recorded as “incorporated”.
With `CC(C)C[C@H](N)C(=O)O` [leucine], the “incorporation of 14C-labeled amino acid into oocytes” value is on record as “large incorporation; also recorded: significantly incorporated”.
On to `N[C@H](Cc1ccccc1)C(=O)O` [D-phenylalanine], for which the “incorporation of 14C-labeled amino acid into oocytes” value was “incorporated”.
Same read-out and setting: under `CSCC[C@H](N)C(=O)O` [methionine] stands “significantly incorporated”.
`CC(C)[C@H](N)C(=O)O` [valine]: the “incorporation of 14C-labeled amino acid into oocytes” value was “significantly incorporated”.
On the same count and under the same terms, under `CC[C@H](C)[C@H](N)C(=O)O` [isoleucine] stands “significantly incorporated”; under `N[C@@H](Cc1c[nH]c2ccccc12)C(=O)O` [tryptophan], “significantly incorporated”.
As for `N[C@@H](Cc1ccccc1)C(=O)O` [phenylalanine], the “incorporation of 14C-labeled amino acid into oocytes” value is on record as “significantly incorporated”.

Staying with this test, now noted: summary statement of the disclosure.
Regarding `N[C@@H](Cc1c[nH]cn1)C(=O)O` [histidine], the “incorporation in a cell in which human LAT1 and human 4F2hc are co-expressed” value (“incorporation in a cell” for short) is “very strong incorporation”.
On the same count and under the same terms, under `N[C@@H](Cc1ccc(O)cc1)C(=O)O` [tyrosine] stands “very strong incorporation”; under `NC(=O)C[C@H](N)C(=O)O` [asparagine], “significant incorporation”; under `NC(=O)CC[C@H](N)C(=O)O` [glutamine], “significant incorporation”.
The same measure, in the same setting: under `CC(C)C[C@H](N)C(=O)O` [leucine] stands “very strong incorporation”; under `CSCC[C@H](N)C(=O)O` [methionine], “very strong incorporation”; under `CC(C)[C@H](N)C(=O)O` [valine], “very strong incorporation”.
Still for that read-out and setting: under `C[C@@H](O)[C@H](N)C(=O)O` [threonine] stands “significant incorporation”; under `N[C@@H](Cc1ccc(O)c(O)c1)C(=O)O` [L-DOPA], “confirmed”.
With `CC[C@H](C)[C@H](N)C(=O)O` [isoleucine], the “incorporation in a cell” value is given as “very strong incorporation”.
Turning to `N[C@@H](Cc1c[nH]c2ccccc12)C(=O)O` [tryptophan], the “incorporation in a cell” value is reported as “very strong incorporation”.
Same read-out and setting: under `N[C@@H](Cc1ccccc1)C(=O)O` [phenylalanine] stands “very strong incorporation”.
As for `N[C@@H](CS)C(=O)O` [cysteine], the “incorporation in a cell” value is recorded as “significant incorporation”.
